Results reported in ChEMBL document CHEMBL4414590, “Discovery of SIAIS178 as an Effective BCR-ABL Degrader by Recruiting Von Hippel-Lindau (VHL) E3 Ubiquitin Ligase” (J Med Chem, 2019).
pIC50: −log10 of the molar value. Each block holds one compound with its values, some of them ahead of it. Calls of active or inactive are those of the source. The rule behind the calls is not given here.

How the values were obtained:
K562 [1] = assay: Growth inhibition of human K562 cells incubated for 2 days by CCK8 assay; type: functional, cell-based; conditions: K562, 48 h
[2] = biological target: T1, von Hippel-Lindau disease tumor suppressor/Tyrosine-protein kinase ABL1/Breakpoint cluster region protein (Homo sapiens, UniProt P00519+P11274+P40337); assay: Protac activity against VHL/BCR-ABL in human K562 cells assessed as induction of BCR-ABL degradation by Western blot analysis; type: cell-based
Target sequence in this assay (P00519 whole entry): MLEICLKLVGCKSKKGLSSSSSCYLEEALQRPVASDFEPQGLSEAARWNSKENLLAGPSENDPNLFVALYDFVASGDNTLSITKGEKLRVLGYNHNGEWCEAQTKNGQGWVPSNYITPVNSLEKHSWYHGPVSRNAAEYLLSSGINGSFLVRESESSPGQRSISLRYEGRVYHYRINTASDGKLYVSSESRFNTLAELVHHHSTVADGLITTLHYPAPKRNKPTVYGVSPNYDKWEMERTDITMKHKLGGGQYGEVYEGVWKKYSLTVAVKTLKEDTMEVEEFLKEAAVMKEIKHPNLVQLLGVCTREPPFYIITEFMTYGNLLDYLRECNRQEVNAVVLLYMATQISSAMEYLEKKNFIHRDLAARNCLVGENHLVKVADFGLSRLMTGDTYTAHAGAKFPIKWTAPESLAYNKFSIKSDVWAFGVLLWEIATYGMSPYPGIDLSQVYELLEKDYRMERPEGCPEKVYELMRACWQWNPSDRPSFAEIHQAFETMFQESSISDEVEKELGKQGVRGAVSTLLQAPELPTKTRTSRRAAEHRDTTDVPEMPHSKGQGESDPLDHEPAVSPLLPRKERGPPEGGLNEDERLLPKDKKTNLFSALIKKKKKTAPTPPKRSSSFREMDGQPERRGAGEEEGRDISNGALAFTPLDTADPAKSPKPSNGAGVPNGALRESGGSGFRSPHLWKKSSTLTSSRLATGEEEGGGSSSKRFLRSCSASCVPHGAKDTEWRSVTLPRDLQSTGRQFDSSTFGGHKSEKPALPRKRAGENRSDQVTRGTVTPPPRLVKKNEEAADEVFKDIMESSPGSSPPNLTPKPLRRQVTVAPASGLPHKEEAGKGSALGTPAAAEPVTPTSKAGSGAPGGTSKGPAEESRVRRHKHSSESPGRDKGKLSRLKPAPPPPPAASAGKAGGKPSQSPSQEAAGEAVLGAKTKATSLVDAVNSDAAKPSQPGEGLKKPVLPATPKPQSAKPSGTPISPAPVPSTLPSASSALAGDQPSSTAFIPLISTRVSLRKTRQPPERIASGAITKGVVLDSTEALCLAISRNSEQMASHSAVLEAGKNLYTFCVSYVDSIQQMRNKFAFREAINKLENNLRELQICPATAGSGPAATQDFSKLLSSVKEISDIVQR
Target sequence in this assay (P11274 whole entry): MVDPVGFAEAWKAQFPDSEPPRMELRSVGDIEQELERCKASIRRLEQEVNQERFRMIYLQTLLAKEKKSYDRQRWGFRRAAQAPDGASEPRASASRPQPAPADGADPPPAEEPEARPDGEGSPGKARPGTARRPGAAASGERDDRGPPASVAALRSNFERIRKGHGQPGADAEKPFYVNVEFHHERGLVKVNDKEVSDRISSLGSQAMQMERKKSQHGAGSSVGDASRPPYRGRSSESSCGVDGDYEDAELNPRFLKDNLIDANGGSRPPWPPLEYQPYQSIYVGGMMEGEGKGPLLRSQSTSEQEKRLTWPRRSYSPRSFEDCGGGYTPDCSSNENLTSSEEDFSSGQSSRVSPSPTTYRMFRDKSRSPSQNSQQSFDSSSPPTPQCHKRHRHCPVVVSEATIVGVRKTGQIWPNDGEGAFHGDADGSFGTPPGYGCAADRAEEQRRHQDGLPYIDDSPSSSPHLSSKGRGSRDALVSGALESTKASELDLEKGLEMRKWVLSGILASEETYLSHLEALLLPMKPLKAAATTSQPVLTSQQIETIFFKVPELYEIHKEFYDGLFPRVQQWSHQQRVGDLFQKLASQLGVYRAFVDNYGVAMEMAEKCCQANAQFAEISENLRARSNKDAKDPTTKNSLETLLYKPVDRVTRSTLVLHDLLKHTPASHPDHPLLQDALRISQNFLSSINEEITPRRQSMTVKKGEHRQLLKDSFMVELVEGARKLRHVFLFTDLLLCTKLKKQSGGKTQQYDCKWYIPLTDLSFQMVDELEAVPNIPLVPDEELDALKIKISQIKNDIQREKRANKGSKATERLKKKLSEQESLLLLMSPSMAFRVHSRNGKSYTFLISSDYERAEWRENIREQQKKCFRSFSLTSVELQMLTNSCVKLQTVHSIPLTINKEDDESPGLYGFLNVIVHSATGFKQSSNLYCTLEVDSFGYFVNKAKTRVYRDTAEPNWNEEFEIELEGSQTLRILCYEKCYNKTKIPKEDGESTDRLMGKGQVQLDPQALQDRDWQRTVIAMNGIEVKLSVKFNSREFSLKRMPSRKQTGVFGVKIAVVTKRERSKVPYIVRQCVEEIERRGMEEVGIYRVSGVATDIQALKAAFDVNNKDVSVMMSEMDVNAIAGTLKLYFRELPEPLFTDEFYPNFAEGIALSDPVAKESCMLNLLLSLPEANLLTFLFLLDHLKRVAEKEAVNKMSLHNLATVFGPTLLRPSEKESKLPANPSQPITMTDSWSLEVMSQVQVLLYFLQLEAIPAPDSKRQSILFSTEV
Target sequence in this assay (P40337 whole entry): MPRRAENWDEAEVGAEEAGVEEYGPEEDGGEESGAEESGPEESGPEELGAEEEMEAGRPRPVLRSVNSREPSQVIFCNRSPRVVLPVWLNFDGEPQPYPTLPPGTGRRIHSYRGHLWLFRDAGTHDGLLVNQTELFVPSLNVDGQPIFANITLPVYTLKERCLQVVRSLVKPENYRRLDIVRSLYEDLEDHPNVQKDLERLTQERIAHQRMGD

K562 [3] = assay: Growth inhibition of human K562 cells assessed as reduction in cell density at 20 times IC50 incubated for 12 hrs followed by drug wash-out and incubation in drug-free medium up to 144 hrs by CCK8 assay; type: functional, cell-based
K562 [4] = assay: Antitumor activity against luciferse expressing human K562 cells xenografted in NOD/SCID mouse assessed as attenuation of tumor progression at 5 mg/kg, ip QD for 12 days by serial volumetric analysis; type: functional, organism-based
K562 [5] = assay: Induction of cell death in human K562 cells assessed as reduction in cell viability at 20 times IC50 incubated for 12 hrs followed by drug wash-out and incubation in drug-free medium up to 144 hrs by CCK8 assay; type: functional, cell-based
[6] = biological target: T1, von Hippel-Lindau disease tumor suppressor/Tyrosine-protein kinase ABL1/Breakpoint cluster region protein; assay: Induction of ternary complex formation between VHL and BCR-ABL (unknown origin) expressed in HEK293 cells expressing N-terminal BCR-ABL LgBit fusion protein and N-terminal SmBit-VHL fusion protein incubated for 1 hr by NanoBit technology based luciferase complementation assay; type: cell-based
Target sequence in this assay (P00519 whole entry, looked up): as the sequence (P00519 whole entry) above
Target sequence in this assay (P11274 whole entry, looked up): as the sequence (P11274 whole entry) above
Target sequence in this assay (P40337 whole entry, looked up): as the sequence (P40337 whole entry) above

[7] = biological target: Tyrosine-protein kinase ABL1 (Homo sapiens) (UniProt P00519); assay: Binding affinity to human phosphorylated ABL1 (S229 to K512 residues) expressed in mammalian expression system assessed as residual binding level at 10 uM by Kinomescan method relative to control
[8] = biological target: Tyrosine-protein kinase ABL1 (Homo sapiens) (UniProt P00519); assay: Binding affinity to human non-phosphorylated ABL1 (S229 to K512 residues) expressed in mammalian expression system assessed as residual binding level at 10 uM by Kinomescan method relative to control
[9] = Permeability in human Caco2 cells at 10 uM incubated for 120 mins by LC-MS/MS analysis; type: ADME, cell-based; conditions: caco-2, 2 h
[10] = biological target: T2, Bcr/Abl fusion protein (Homo sapiens) (UniProt P00519+P11274); assay: Inhibition of BCR-ABL in human K562 cells assessed as reduction in STAT5 phosphorylation at 1 to 100 nM by Western blot analysis; type: cell-based
K562 [11] = assay: Antitumor activity against luciferse expressing human K562 cells xenografted in NOD/SCID mouse assessed as attenuation of tumor progression at 5 to 15 mg/kg, ip QD for 12 days by serial volumetric analysis; type: functional, organism-based
Mus musculus = assay: Inhibition of BCR-ABL phosphorylation in NOD/SCID mouse xenografted with luciferse expressing human K562 cells at 5 to 15 mg/kg, ip QD for 4 days by Western blotting analysis; type: functional, organism-based
[12] = biological target: T1, von Hippel-Lindau disease tumor suppressor/Tyrosine-protein kinase ABL1/Breakpoint cluster region protein; assay: Protac activity against VHL/BCR-ABL in human K562 cells assessed as induction of BCR-ABL degradation at 1 to 100 nM by Western blot analysis; type: cell-based
Target sequence in this assay (P00519 whole entry, looked up): as the sequence (P00519 whole entry) above
Target sequence in this assay (P11274 whole entry, looked up): as the sequence (P11274 whole entry) above
Target sequence in this assay (P40337 whole entry, looked up): as the sequence (P40337 whole entry) above

[13] = biological target: T2, Bcr/Abl fusion protein (Homo sapiens); assay: Inhibition of BCR-ABL phosphorylation in human K562 cells at 1 to 100 nM by Western blot analysis; type: cell-based
[14] = biological target: T1, von Hippel-Lindau disease tumor suppressor/Tyrosine-protein kinase ABL1/Breakpoint cluster region protein; assay: Protac activity against VHL/BCR-ABL in NOD/SCID mouse xenografted with luciferse expressing human K562 cells assessed as induction of BCR-ABL degradation at 15 mg/kg, ip QD for 4 days by Western blotting analysis; type: functional, organism-based
Target sequence in this assay (P00519 whole entry, looked up): as the sequence (P00519 whole entry) above
Target sequence in this assay (P11274 whole entry, looked up): as the sequence (P11274 whole entry) above
Target sequence in this assay (P40337 whole entry, looked up): as the sequence (P40337 whole entry) above

[15] = biological target: T1, von Hippel-Lindau disease tumor suppressor/Tyrosine-protein kinase ABL1/Breakpoint cluster region protein; assay: Induction of ternary complex formation between VHL and BCR-ABL (unknown origin) expressed in HEK293 cells expressing N-terminal BCR-ABL LgBit fusion protein and N-terminal SmBit-VHL fusion protein at 1 uM incubated for 1 hr by NanoBit technology based luciferase complementation assay; type: cell-based
Target sequence in this assay (P00519 whole entry, looked up): as the sequence (P00519 whole entry) above
Target sequence in this assay (P11274 whole entry, looked up): as the sequence (P11274 whole entry) above
Target sequence in this assay (P40337 whole entry, looked up): as the sequence (P40337 whole entry) above

Chain of Tyrosine-protein kinase ABL1 (Homo sapiens) (P00519 whole entry, the tested form may be a part): as the sequence (P00519 whole entry) above
T2 sequence (P00519 whole entry, looked up, the tested form may be a part): as the sequence (P00519 whole entry) above
T2 sequence (P11274 whole entry, looked up, the tested form may be a part): as the sequence (P11274 whole entry) above

pIC50 (K562 [1]): 7.92
SMILES: Cc1nc(Nc2ncc(C(=O)Nc3c(C)cccc3Cl)s2)cc(N2CCN(C(=O)CCCc3cn(CCCC(=O)N[C@H](C(=O)N4C[C@H](O)C[C@H]4C(=O)NCc4ccc(-c5scnc5C)cc4)C(C)(C)C)nn3)CC2)n1

DC50 [2]: 10.1 nM
pIC50 (K562 [1]): 7.84
SMILES: Cc1nc(Nc2ncc(C(=O)Nc3c(C)cccc3Cl)s2)cc(N2CCN(C(=O)CCCCCCCCC(=O)N[C@H](C(=O)N3C[C@H](O)C[C@H]3C(=O)NCc3ccc(-c4scnc4C)cc3)C(C)(C)C)CC2)n1

DC50 [2]: 40.2 nM
pIC50 (K562 [1]): 7.06
SMILES: Cc1nc(Nc2ncc(C(=O)Nc3c(C)cccc3Cl)s2)cc(N2CCN(C(=O)CCCC(=O)N[C@H](C(=O)N3C[C@H](O)C[C@H]3C(=O)NCc3ccc(-c4scnc4C)cc3)C(C)(C)C)CC2)n1

pIC50 (K562 [1]): 9.05
SMILES: Cc1nc(Nc2ncc(C(=O)Nc3c(C)cccc3Cl)s2)cc(N2CCN(CCO)CC2)n1 [DASATINIB]
growth inhibition (GI) (K562 [3]): inactive
Activity (K562 [4]): Active
Activity (K562 [5]): inactive

Activity [6]: Active
Activity [7]: Active
Activity [8]: Active
permeability [9]: Permeable
SMILES: Cc1nc(Nc2ncc(C(=O)Nc3c(C)cccc3Cl)s2)cc(N2CCN(C(=O)COCCOCCOCC(=O)N[C@H](C(=O)N3C[C@H](O)C[C@H]3C(=O)NCc3ccc(-c4scnc4C)cc3)C(C)(C)C)CC2)n1

pIC50 (K562 [1]): 5.65
SMILES: Cc1nc(Nc2ncc(C(=O)Nc3c(C)cccc3Cl)s2)cc(N2CCN(C(=O)COCCOCC(=O)N[C@H](C(=O)N3C[C@H](O)C[C@H]3C(=O)NCc3ccc(-c4scnc4C)cc3)C(C)(C)C)CC2)n1

pIC50 (K562 [1]): 5.79
SMILES: Cc1nc(Nc2ncc(C(=O)Nc3c(C)cccc3Cl)s2)cc(N2CCN(C(=O)CCOCCOCCOCCOCCOCCC(=O)N[C@H](C(=O)N3C[C@H](O)C[C@H]3C(=O)NCc3ccc(-c4scnc4C)cc3)C(C)(C)C)CC2)n1

pIC50 (K562 [1]): 8.47
SMILES: Cc1nc(Nc2ncc(C(=O)Nc3c(C)cccc3Cl)s2)cc(N2CCN(CCCCCCOCCOCCOCCCCCC(=O)N[C@H](C(=O)N3C[C@H](O)C[C@H]3C(=O)NCc3ccc(-c4scnc4C)cc3)C(C)(C)C)CC2)n1

pIC50 (K562 [1]): 5.46
SMILES: Cc1nc(Nc2ncc(C(=O)Nc3c(C)cccc3Cl)s2)cc(N2CCN(C(=O)CCOCCOCCOCCC(=O)N[C@H](C(=O)N3C[C@H](O)C[C@H]3C(=O)NCc3ccc(-c4scnc4C)cc3)C(C)(C)C)CC2)n1

pIC50 (K562 [1]): 7.14
SMILES: Cc1nc(Nc2ncc(C(=O)Nc3c(C)cccc3Cl)s2)cc(N2CCN(C(=O)CCCCNC(=O)CCCCCCCCC(=O)N[C@H](C(=O)N3C[C@H](O)C[C@H]3C(=O)NCc3ccc(-c4scnc4C)cc3)C(C)(C)C)CC2)n1

DC50 [2]: 17.9 nM
pIC50 (K562 [1]): 7.42
SMILES: Cc1nc(Nc2ncc(C(=O)Nc3c(C)cccc3Cl)s2)cc(N2CCN(C(=O)CCCCCC(=O)N[C@H](C(=O)N3C[C@H](O)C[C@H]3C(=O)NCc3ccc(-c4scnc4C)cc3)C(C)(C)C)CC2)n1

pIC50 (K562 [1]): 7.83
SMILES: Cc1nc(Nc2ncc(C(=O)Nc3c(C)cccc3Cl)s2)cc(N2CCN(C(=O)CCCCCOCCOCCOCCCCCC(=O)N[C@H](C(=O)N3C[C@H](O)C[C@H]3C(=O)NCc3ccc(-c4scnc4C)cc3)C(C)(C)C)CC2)n1

pIC50 (K562 [1]): 7.17
SMILES: Cc1nc(Nc2ncc(C(=O)Nc3c(C)cccc3Cl)s2)cc(N2CCN(C(=O)CNC(=O)CCCC(=O)N[C@H](C(=O)N3C[C@H](O)C[C@H]3C(=O)NCc3ccc(-c4scnc4C)cc3)C(C)(C)C)CC2)n1

DC50 [2]: 34.7 nM
pIC50 (K562 [1]): 7.05
SMILES: Cc1nc(Nc2ncc(C(=O)Nc3c(C)cccc3Cl)s2)cc(N2CCN(C(=O)CCCCC(=O)N[C@H](C(=O)N3C[C@H](O)C[C@H]3C(=O)NCc3ccc(-c4scnc4C)cc3)C(C)(C)C)CC2)n1

SMILES: Cc1nc(Nc2ncc(C(=O)Nc3c(C)cccc3Cl)s2)cc(N2CCN(C(=O)CCCCCCC(=O)N[C@H](C(=O)N3C[C@@H](O)C[C@H]3C(=O)NCc3ccc(-c4scnc4C)cc3)C(C)(C)C)CC2)n1
inhibition [10]: Active
Activity (K562 [11]): inactive
growth inhibition (GI) (K562 [3]): inactive
inhibition (Mus musculus): Active
Activity [12]: inactive
inhibition [13]: Active
Activity [14]: inactive
Activity [15]: inactive
Activity (K562 [5]): inactive

pIC50 (K562 [1]): 7.84
SMILES: Cc1nc(Nc2ncc(C(=O)Nc3c(C)cccc3Cl)s2)cc(N2CCN(C(=O)CCCCCCCCCCCCC(=O)N[C@H](C(=O)N3C[C@H](O)C[C@H]3C(=O)NCc3ccc(-c4scnc4C)cc3)C(C)(C)C)CC2)n1

pIC50 (K562 [1]): 6.17
SMILES: Cc1nc(Nc2ncc(C(=O)Nc3c(C)cccc3Cl)s2)cc(N2CCN(C(=O)CCOCCOCCC(=O)N[C@H](C(=O)N3C[C@H](O)C[C@H]3C(=O)NCc3ccc(-c4scnc4C)cc3)C(C)(C)C)CC2)n1

pIC50 (K562 [1]): 5.67
SMILES: Cc1nc(Nc2ncc(C(=O)Nc3c(C)cccc3Cl)s2)cc(N2CCN(C(=O)CCOCCOCCOCCOCCC(=O)N[C@H](C(=O)N3C[C@H](O)C[C@H]3C(=O)NCc3ccc(-c4scnc4C)cc3)C(C)(C)C)CC2)n1

pIC50 (K562 [1]): 8.16
SMILES: Cc1nc(Nc2ncc(C(=O)Nc3c(C)cccc3Cl)s2)cc(N2CCN(CCCCCNC(=O)CCCCCCCCC(=O)N[C@H](C(=O)N3C[C@H](O)C[C@H]3C(=O)NCc3ccc(-c4scnc4C)cc3)C(C)(C)C)CC2)n1

DC50 [2]: 37.9 nM
pIC50 (K562 [1]): 7.65
SMILES: Cc1nc(Nc2ncc(C(=O)Nc3c(C)cccc3Cl)s2)cc(N2CCN(C(=O)CCCCCCCC(=O)N[C@H](C(=O)N3C[C@H](O)C[C@H]3C(=O)NCc3ccc(-c4scnc4C)cc3)C(C)(C)C)CC2)n1

DC50 [2]: 611 nM
pIC50 (K562 [1]): 7.11
SMILES: Cc1nc(Nc2ncc(C(=O)Nc3c(C)cccc3Cl)s2)cc(N2CCN(C(=O)CCC(=O)N[C@H](C(=O)N3C[C@H](O)C[C@H]3C(=O)NCc3ccc(-c4scnc4C)cc3)C(C)(C)C)CC2)n1

pIC50 (K562 [1]): 7.49
SMILES: Cc1nc(Nc2ncc(C(=O)Nc3c(C)cccc3Cl)s2)cc(N2CCN(C(=O)CCCCCCCCCCCCCCC(=O)N[C@H](C(=O)N3C[C@H](O)C[C@H]3C(=O)NCc3ccc(-c4scnc4C)cc3)C(C)(C)C)CC2)n1
